# Assay results reported in patent US20130281400A1, “Metabolic Downregulation for Cell Survival” (Wake Forest University Health Sciences, priority 2010, published 2013).
# Experiments:
# [1] = system: C2C12 cells, murine myoblasts; test: MTS assay of metabolic activity of viable cells under hypoxia (0.1% O2) with daily adenosine; assay type: cell-based
# Procedure: 500 μL of a cell suspension (C2C12 cells, murine myoblasts) in high glucose Dulbecco's modified Eagle's medium (DMEM, Gibco) containing 10% FBS, 500 U/mL penicillin and 500 μg/mL streptomycin was placed in each well of a 48-well culture plate at a density of 1052 (FIG. 2) and 2105 (FIG. 3) cells/cm^2. Cells were incubated for 24 hr in normoxic conditions (21% O2, 37° C.) prior to placement in a hypoxic chamber. At day 0, the plates designated as the hypoxic group were transferred to the hypoxic chamber (0.1% O2). […] Another group receiving daily doses of adenosine ([…], achieved by serial dilution) was incubated for up to 7 days under hypoxia and then placed back into normoxic conditions without additional supply of adenosine. Adenosine was refreshed by the daily exchange of media in which adenosine was completely dissolved. Media to be used under hypoxia was placed in the hypoxic chamber 24 hr prior to use for deoxygenation down to 2% O2. The metabolic activity of viable cells at each pre-determined time point was assessed using an MTS assay, which measures mitochondrial activity of cells. Adenosine was used with C2C12 at passage 17, the murine myoblast cell lines, because of their relatively high metabolic activity and proliferation rate. […] Based on the microscopic observations of these cell stained with Giemsa, it was not seen that whole population of cells completely reached the state of necrosis up to the latest time point tested, as a few populations of attached cells were still observed. It is expected that those remaining cells eventually die. […] The effect of dose was also evaluated on a degree of cellular activity (FIG. 3). […] Based on this outcome, the minimum effective concentration of adenosine appears to be about 1 mM under this experimental condition. The reason for 1 mM treated cells not declining up to the duration tested may potentially have been the lower starting number of cells. […] Finally, the long term effect of adenosine was tested on resuming its proliferation after its supply is stopped. The duration tested under the effect of adenosine was 22 days, as the angiogenesis process is known to take 2-3 weeks (Cotton, 1996, Trends Biotechnol, 14(5):158-62; […] et al., 1996, Biomaterials, 17(3):277-84) for completion.
# muscle tissue = test: adenosine injected into muscle tissue; assay type: in vivo
# Description: Adenosine, a nucleoside known for its function as an energy transferring molecule, is also known to function as a modulator of hypoxia-induced ion-channel arrest, which eventually leads to lowering of ATP consumption, and thus oxygen demand. Moreover, it is also known to stimulate angiogenesis. Thus, the present invention provides for the application of adenosine to cell-seeded scaffolds under the hypoxic condition to improve cell survival rate via the downregulation of metabolic rate, and thus lowering oxygen demand and consumption. As contemplated herein, agonists to adenosine may also be used in a similar manner to lower the oxygen demand of cells and tissues. […] Adenosine may be administered alone as a composition or within a formulation, as would be understood by those skilled in the art.
smiles,measurement,setting,value
Nc1ncnc2c1ncn2[C@@H]1O[C@H](CO)[C@@H](O)[C@H]1O [adenosine],cellular metabolic activity pattern at 1 mM adenosine,"[1]; 1 mM adenosine, hypoxia, FIG. 3",showed a similar pattern with the cells grown in the hypoxic condition without supply of adenosine
same,long term effect: resuming proliferation after adenosine supply is stopped,"[1]; 22 days under the effect of adenosine, various doses, FIG. 4",still demonstrated the ability to restore its normal proliferation rate
same,cellular (metabolic) activity under hypoxic conditions,"[1]; C2C12 passage 17, hypoxia 0.1% O2, daily adenosine up to 7 days, FIG. 2",maintained a steady state of cellular activity
same,effect of dose on degree of cellular activity,"[1]; adenosine dose increased from 1 to 10 mM, hypoxic conditions, FIG. 3",an escalation of steady hypometabolic state was maintained under hypoxic conditions
same,resumption of normal metabolic activity after removal of adenosine,"[1]; adenosine removed at day 7, cells returned to normoxic conditions, FIG. 2",resumed their normal metabolic activity two days after adenosine was removed at day 7
same,minimum effective concentration of adenosine,"[1]; hypoxic conditions, dose study, FIG. 3",about 1 mM
same,cellular viability and tissue architecture,muscle tissue,preservation of cellular viability and tissue architecture
